Earlier results as cited in patent US7423030B2, “1-amino-phthalazine derivatives, the preparation and the therapeutic use thereof” (Sanofi-Aventis, priority 2004, dated 2008).

Test system: MCH1 receptor
Settings: social conflict and forced swimming in rats, maternal separation in guinea pigs; cited from earlier work

## COCC1=C(C(=O)OC)[C@H](c2ccc(F)c(F)c2)N(C(=O)NCCCN2CCC(c3cccc(NC(C)=O)c3)CC2)C(=O)N1 [SNAP-7941]
  behavioural profile in animal models: anxiolytic and/or antidepressant profile
